According to patent publication US6355799B1, “Substituted benzene compounds, process for their preparation, and herbicidal and defoliant compositions containing them” (ISK Americas Incorporated, priority 1997, dated 2002):

What was measured:
Type in all cases: in vivo
[1] = system: redroot pigweed (Amaranthus retroflexus, AMARE); experiment: Pre-emerge test, greenhouse herbicide activity screening; details: pre-emerge, phytotoxicity rating 0-100 at 14 days after application
Procedure, shortened: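 Visual ratings on a 0-100 scale (0 no damage, 100 all plants dead) were taken at 14 days after treatment. Rates of 15-1000 g ai/ha in acetone, 187 l/ha, were sprayed onto soil one day after planting (pre-emerge) or onto 2-3 leaf plants with 0.25% v/v surfactant (post-emerge).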

[2] = system: barnyardgrass (Echinochloa crus-galli, ECHCG); experiment: as above; details: pre-emerge, phytotoxicity rating 0-100 at 14 days after application
Procedure, shortened: (§1)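 Rating: 0–100 visual injury, 14 DAA. Application: acetone, 187 l/ha, 15–1000 g ai/ha, flat-fan track sprayer with nozzle 40–45 cm above soil or canopy. Post-emerge runs used 0.25% v/v surfactant on 2–3 leaf plants.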

[3] = system: green foxtail (Setaria viridis, SETVI); experiment: as above; details: pre-emerge, phytotoxicity rating 0-100 at 14 days after application
Procedure, shortened: as §1

[4] = system: ivyleaf morningglory (Ipomoea hederacea, IPOHE); experiment: as above; details: pre-emerge, phytotoxicity rating 0-100 at 14 days after application
Procedure, shortened: as §1

[5] = system: johnsongrass (Sorghum halepense, SORHA); experiment: as above; details: pre-emerge, phytotoxicity rating 0-100 at 14 days after application
Procedure, shortened: as §1

[6] = system: lambsquarters (Chenopodium album, CHEAL); experiment: as above; details: pre-emerge, phytotoxicity rating 0-100 at 14 days after application
Procedure, shortened: as §1

[7] = system: large crabgrass (Digitaria sanguinalis, DIGSA); experiment: as above; details: pre-emerge, phytotoxicity rating 0-100 at 14 days after application
Procedure, shortened: as §1

[8] = system: sicklepod (Cassia obtusifolia, CASOB); experiment: as above; details: pre-emerge, phytotoxicity rating 0-100 at 14 days after application
Procedure, shortened: as §1

[9] = system: velvetleaf (Abutilon theophrasti, ABUTH); experiment: as above; details: pre-emerge, phytotoxicity rating 0-100 at 14 days after application
Procedure, shortened: as §1

[10] = system: field corn (Zea mays L., var. Dekalb 535, CORN); experiment: Pre-emerge test, crop safety; details: crop damage, pre-emerge, phytotoxicity rating 0-100 at 14 days after application
Procedure, shortened: (§2)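 Herbicidal damage is scored 0 (none) to 100 (complete plant death) two weeks after a simulated field spray. Rates span 15–1000 g ai/ha, delivered in acetone at 187 l/ha. For post-emergence treatments, plants have 2–3 leaves and the spray carries 0.25% v/v non-ionic surfactant.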

[11] = system: upland rice (Oryza sp., var. Tebonnet, RICE); experiment: Pre-emerge test, crop safety; details: crop damage, pre-emerge, phytotoxicity rating 0-100 at 14 days after application
Procedure, shortened: as §2

[12] = system: barnyardgrass (Echinochloa crus-galli, ECHCG); experiment: Post-emerge test, greenhouse herbicide activity screening; details: post-emerge, phytotoxicity rating 0-100 at 14 days after application
Procedure, shortened: (§3)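 Compounds in acetone were track-sprayed at 15–1000 g ai/ha: pre-emergence onto soil sown the previous day, then top-watered to incorporate and later bottom-watered; post-emergence onto 2–3 leaf plants with 0.25% v/v surfactant, bottom-watered only. Ratings on a 0–100 phytotoxicity scale were taken at day 14.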

[13] = system: green foxtail (Setaria viridis, SETVI); experiment: as above; details: post-emerge, phytotoxicity rating 0-100 at 14 days after application
Procedure, shortened: as §3

[14] = system: ivyleaf morningglory (Ipomoea hederacea, IPOHE); experiment: as above; details: post-emerge, phytotoxicity rating 0-100 at 14 days after application
Procedure, shortened: as §3

[15] = system: johnsongrass (Sorghum halepense, SORHA); experiment: as above; details: post-emerge, phytotoxicity rating 0-100 at 14 days after application
Procedure, shortened: as §3

[16] = system: lambsquarters (Chenopodium album, CHEAL); experiment: as above; details: post-emerge, phytotoxicity rating 0-100 at 14 days after application
Procedure, shortened: as §3

[17] = system: large crabgrass (Digitaria sanguinalis, DIGSA); experiment: as above; details: post-emerge, phytotoxicity rating 0-100 at 14 days after application
Procedure, shortened: as §3

[18] = system: redroot pigweed (Amaranthus retroflexus, AMARE); experiment: as above; details: post-emerge, phytotoxicity rating 0-100 at 14 days after application
Procedure, shortened: as §3

[19] = system: sicklepod (Cassia obtusifolia, CASOB); experiment: as above; details: post-emerge, phytotoxicity rating 0-100 at 14 days after application
Procedure, shortened: as §3

[20] = system: velvetleaf (Abutilon theophrasti, ABUTH); experiment: as above; details: post-emerge, phytotoxicity rating 0-100 at 14 days after application
Procedure, shortened: as §3

[21] = system: field corn (Zea mays L., var. Dekalb 535, CORN); experiment: Post-emerge test, crop safety; details: post-emerge, crop damage rating 0-100 at 14 days after application
Procedure, shortened: (§4)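 Plants grown in 10 cm pots of sandy loam mix received acetone-dissolved compounds through a moving flat-fan nozzle. Doses ranged from 15 to 1000 g ai/ha. Pre-emerge pots were seeded one day earlier, post-emerge pots 8–21 days earlier. Fourteen days on, each pot was graded 0–100 for damage.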

[22] = system: upland rice (Oryza sp., var. Tebonnet, RICE); experiment: Post-emerge test, crop safety; details: post-emerge, crop damage rating 0-100 at 14 days after application
Procedure, shortened: as §4

Cc1c(Cl)cc(F)c(-n2c(=O)cc(C(F)(F)F)n(C)c2=O)c1NC(=O)OCc1ccc([N+](=O)[O-])cc1 [4-64] was tested, and the “Pre-emerge Herbicidal Activity AMARE” value ([1]; rate 63 g ai/ha) was 100, the “Pre-emerge Herbicidal Activity AMARE” value ([1]; rate 250 g ai/ha) was 100 and the “Pre-emerge Herbicidal Activity ECHCG” value ([2]; rate 63 g ai/ha) was 30. For the same compound, the “Pre-emerge Herbicidal Activity ECHCG” value ([2]; rate 250 g ai/ha) was 70, the “Pre-emerge Herbicidal Activity SETVI” value ([3]; rate 63 g ai/ha) was 100 and the “Pre-emerge Herbicidal Activity SETVI” value ([3]; rate 250 g ai/ha) was 100. The “Pre-emerge Herbicidal Activity IPOHE” value ([4]; rate 63 g ai/ha) was 40, the “Pre-emerge Herbicidal Activity IPOHE” value ([4]; rate 250 g ai/ha) was 70 and the “Pre-emerge Herbicidal Activity SORHA” value ([5]; rate 63 g ai/ha) was 40. The “Pre-emerge Herbicidal Activity SORHA” value ([5]; rate 250 g ai/ha) was 80, the “Pre-emerge Herbicidal Activity CHEAL” value ([6]; rate 63 g ai/ha) was 100 and the “Pre-emerge Herbicidal Activity CHEAL” value ([6]; rate 250 g ai/ha) was 100. For the same compound, the “Pre-emerge Herbicidal Activity DIGSA” value ([7]; rate 63 g ai/ha) was 100, the “Pre-emerge Herbicidal Activity DIGSA” value ([7]; rate 250 g ai/ha) was 100 and the “Pre-emerge Herbicidal Activity CASOB” value ([8]; rate 63 g ai/ha) was 20. For the same compound, the “Pre-emerge Herbicidal Activity CASOB” value ([8]; rate 250 g ai/ha) was 90, the “Pre-emerge Herbicidal Activity ABUTH” value ([9]; rate 63 g ai/ha) was 100 and the “Pre-emerge Herbicidal Activity ABUTH” value ([9]; rate 250 g ai/ha) was 100. For the same compound, the “Pre-emerge Herbicidal Activity CORN” value ([10]; rate 63 g ai/ha) was 0, the “Pre-emerge Herbicidal Activity CORN” value ([10]; rate 250 g ai/ha) was 45 and the “Pre-emerge Herbicidal Activity RICE” value ([11]; rate 63 g ai/ha) was 30. The “Pre-emerge Herbicidal Activity RICE” value ([11]; rate 250 g ai/ha) was 80, the “Post-emerge Herbicidal Activity ECHCG” value ([12]; 63 g ai/ha) was 20 and the “Post-emerge Herbicidal Activity ECHCG” value ([12]; 250 g ai/ha) was 30. For the same compound, the “Post-emerge Herbicidal Activity SETVI” value ([13]; 63 g ai/ha) was 50, the “Post-emerge Herbicidal Activity SETVI” value ([13]; 250 g ai/ha) was 80 and the “Post-emerge Herbicidal Activity IPOHE” value ([14]; 63 g ai/ha) was 100. For the same compound, the “Post-emerge Herbicidal Activity IPOHE” value ([14]; 250 g ai/ha) was 100, the “Post-emerge Herbicidal Activity SORHA” value ([15]; 63 g ai/ha) was 10 and the “Post-emerge Herbicidal Activity SORHA” value ([15]; 250 g ai/ha) was 30. The “Post-emerge Herbicidal Activity CHEAL” value ([16]; 63 g ai/ha) was 100, the “Post-emerge Herbicidal Activity CHEAL” value ([16]; 250 g ai/ha) was 100 and the “Post-emerge Herbicidal Activity DIGSA” value ([17]; 63 g ai/ha) was 10. For the same compound, the “Post-emerge Herbicidal Activity DIGSA” value ([17]; 250 g ai/ha) was 30, the “Post-emerge Herbicidal Activity AMARE” value ([18]; 63 g ai/ha) was 100 and the “Post-emerge Herbicidal Activity AMARE” value ([18]; 250 g ai/ha) was 100. The “Post-emerge Herbicidal Activity CASOB” value ([19]; 63 g ai/ha) was 60, the “Post-emerge Herbicidal Activity CASOB” value ([19]; 250 g ai/ha) was 100 and the “Post-emerge Herbicidal Activity ABUTH” value ([20]; 63 g ai/ha) was 100. For the same compound, the “Post-emerge Herbicidal Activity ABUTH” value ([20]; 250 g ai/ha) was 100, the “Post-emerge Herbicidal Activity CORN” value ([21]; 63 g ai/ha) was 30 and the “Post-emerge Herbicidal Activity CORN” value ([21]; 250 g ai/ha) was 40. The “Post-emerge Herbicidal Activity RICE” value ([22]; 63 g ai/ha) was 15 and the “Post-emerge Herbicidal Activity RICE” value ([22]; 250 g ai/ha) was 50.
